Data taken from patent US20200147060A1, “COMPOSITIONS AND METHODS OF TREATING CANCER” (UNIVERSITY OF IOWA RESEARCH FOUNDATION, priority 2018, published 2020).
Entries after “also recorded” stand apart in the source; their conditions may differ. Where two headings read alike, the source gives them in different places.

Legend:
A375 melanoma cells = experiment: Clonogenic survival assay; format: cell-based, human; details: for development / acquisition of resistance to MAPKi (clonogenic survival): secondary agent combined with MAPKih (Vem 5 μM; Cobi 0.1 μM), PBA 2 mM, HCQ 12 μM
Description: To determine if the observed MAPKi-induced GSH imbalance plays a causal role in development of resistance, clonogenic survival assays were conducted in which cells were treated with GSH-synthesis inhibitor buthionine sulfoximine (BSO) (0.5 mM) with and without Vem. BSO depletes cellular GSH by inhibiting GSH synthesis via competitive inhibition of gamma-glutamylcysteine synthetase.

A375 cells = experiment: Expression of ER-stress/UPR markers (GRP78/BiP, eIF2α); format: cell-based, human
Description: The GSH/GSSG ratio is known to be a fundamental buffering parameter of the ER, and ER-stress responses have been implicated in the initiation of autophagy and acquisition of resistance to MAPKih. Thus, the impact of MAPKi-induced GSH imbalance on the expression of ER-stress response proteins was assessed. Changes in UPR markers GRP78 (BiP) and eI2Fa (phospho-eI2Fa to inactivated eI2Fa) were determined by western blot in A375 cells treated with Vem alone and in combination with Cobi (FIGS. 2A-C). […] To explore the role of MAPKi-induced GSH imbalance on activation of UPR, similar time-course experiments were performed to monitor the expression of UPR markers with continuous MAPKi with and without GSH depletion (using BSO). Depletion of the GSH pool using BSO in this way rendered the cells incapable of initiating the ER-stress response and no increase in the expression of GRP78 was seen when A375 cells were treated continuously with Vemurafenib in the presence of BSO (FIG. 2D).

[1] = cited from earlier work; for tolerability in patients: reported clinical trials
A375-CG-LC3B cells = experiment: Autophagic flux (mCherry:EGFP ratio) by flow cytometry; format: cell-based, human
Excerpt: (§1) UPR responses signal the activation of cytoprotective pathways such as autophagy. The role of GSH in mediating the acquisition of resistance was further explored by examining autophagy and autophagic flux responses to MAPKi in A375 metastatic melanoma cells.
Briefly, A375-CG-LC3B cells were obtained using a retroviral vector containing a coding sequence for a mCherry-EGFP-LC3B tandem protein (pBABE-puro mCherry-EGFP-LC3B, #22418, Addgene). The retrovirus was packaged in GP2-293 cells by co-transfection of 1 μg of viral DNA constructs and 1 μg of envelope plasmid (pVSV-G) in 20 μL PolyFect transfection reagent (Qiagen) for 48 hours at 37° C., 5% CO2. Virus-rich media was collected, aliquoted, and stored at −80° C. Cells were infected using the virus-rich media in DMEM (high glucose) for 12 h followed by incubation in complete media (high-glucose DMEM with 10% FBS) for 24 h. […] Autophagy was quantified as autophagic flux (Af) using A375-CG-LC3B cells.
Where Fmcherry is mcherry fluorescence measured using the 532 nm laser and FGFP is GFP fluorescence measured using the 488 nm laser on LSR II. […] Samples were analyzed on an LSR II flow cytometer (BD). Af was calculated for live, non-apoptotic (Hoechst negative, Annexin V negative) population using the derived parameter function in Flow Jo software (V10.4). […]

[2] = test system: MAPKi-resistant 451LuBR melanoma xenografts; experiment: 451LuBR (BRAFi resistant melanoma) xenograft mouse model; format: in vivo, mice
Description: FIGS. 5A-5F. Pharmacologically Inhibiting Autophagy and ER-stress Simultaneously in Combination with MAPKih Improve Overall Survival in Vivo. Simultaneous inhibition of autophagy and ER-stress with MAPKih (Vem and Vem+Cobi) improves outcome in melanoma tumor bearing mice. (A-D) Simultaneous inhibition of ER-stress using PBA (250 mg kg^−1 twice a day) and autophagic flux using (HCQ 10 mg kg^−1 twice a day) with MAPKih (Vem 16 mg kg^−1 twice a day; Cobi 1 mg kg^−1 once a day) improves outcome in mice bearing MAPKi-sensitive A375 melanoma xenografts (N=13). (A) estimated tumor growth curves in response to PBA and HCQ with Vem; (B) estimated tumor growth curves in response to PBA and HCQ with Vem+Cobi; (C) overall survival in response to PBA and HCQ with Vem; (D) overall survival in response to PBA and HCQ with Vem+Cobi. (E, F) Simultaneous inhibition of ER-stress using PBA (250 mg kg^−1 twice a day) and autophagic flux using (HCQ 6.6 mg kg^−1 twice a day) with MAPKih (Vem 10 mg kg^−1 twice a day) improves outcome in mice bearing MAPKi-resistant 451LuBR melanoma xenografts (N=10); (E) estimated tumor growth curves in response to PBA and HCQ with Vem; and (F) overall survival in response to PBA and HCQ with Vem.
The potential for simultaneous inhibition of ER-stress and autophagy in overcoming resistance to MAPKih was further explored using a 451LuBR (BRAFi resistant melanoma) cell-line xenograft mouse model treated in the same way. Predictably, administering Vem alone had no effect of tumor growth and overall survival, establishing that these tumors are resistant to BRAFi.

451 Lu melanoma cells = experiment: Clonogenic survival assay; format: cell-based; details: ME added to the combination of vem and BSO
Description: FIGS. 7A-7L. Reduced Thiols Play a Vital Role in Development of Resistance to MAPKi. (A-E) Reduced thiols play a vital role in development of resistance to MAPKi in vitro. Changes in (A) cellular concentration of reduced glutathione (GSH, nmoles/mg protein) (B) cellular concentration of oxidized glutathione (GSSG, nmoles/mg protein) of A375 melanoma cells when treated with buthionine sulfoximine (BSO, 0.5 mM) and 2-mercaptoethanol (ME, 150 μM) in presence of vemurafenib (Vem, 5 μM) (N=3). Difference in clonogenic survival of A375 (N=2, n=3) and 451 Lu (N=1, n=3) melanoma cells when treated with vem alone compared to (C) vem in combination with ME and (D) vem in combination with BSO. (E) Addition of ME to the combination of vem and BSO rescues clonogenic survival in A375 and 451 Lu melanoma cells. […] Spider plots show individual tumor growth rates in A375 tumor bearing mice (N=8) when (F) untreated; (G) treated with BSO (15 mM in drinking water); (H) treated with AIN-76A rodent diet mixed with vemurafenib (PLX4720); (I) combination of AIN-76A rodent diet mixed with vemurafenib (PLX4720) with BSO. (J) Levels of total cellular GSH in tumor tissue obtained from untreated mice and mice treated with BSO. (K) Progression Free Survival (PFS) and (L) Overall survival (OS). ±SEM; *p=0.01 to 0.05, **p=0.001 to 0.01 ****P<0.0001.

[3] = test system: A375 BRAFV600E mutant melanoma cells; experiment: Glutathione (GSH, GSSG) levels in cells under prolonged MAPKi; format: cell-based, human
Excerpt: (§2) Initial response rates to MAPKih (BRAFih and BRAFih+MEKih) are often significant (and sometimes remarkable), but melanoma almost invariably (within months) develops resistance to these treatments. It has been further documented that continuous MAPKi brings about changes in cellular metabolism accompanied with a shift in metabolism from glycolysis to oxidative phosphorylation in vitro. Changes were examined in metabolism and oxidative state of A375 BRAFV600E mutant melanoma cells from initiation of BRAFih (Vem, 5 μM) through the acquisition of resistance (approximately 30 days). […] Changes in cellular metabolism coincided with a nearly identical pattern in the cellular redox state of the cell when quantified by the method of DHE oxidation by fluorescence intensity. […] Considering the critical relationship between cellular responses to oxidative stress and the glutathione cellular redox buffer, the changes in glutathione (GSH) levels and the ratio of GSH to the oxidized form (GSH:GSSG) with prolonged MAPKi in the A375 cells treated with Vem (5 μM) were evaluated over the same time period (FIG. 1D).

[4] = test system: A375 BRAFV600E mutant melanoma cells; experiment: Oxygen consumption / extracellular acidification (Seahorse metabolic profiling); format: cell-based, human; details: Vem 5 μM continuous; plateaued within approximately 2 weeks
Description: (A) The ratio of basal metabolic oxygen consumption (BMOC)/extracellular acidification rate (ECAR) in response to continuous exposure to 5 μM Vem (N=6) as determined by Seahorse metabolic profiling; (B) Measurement of cellular pro-oxidant levels as determined by dyhdroethidium (DHE) oxidation in response to 5 μM Vem (N=3); (C) GSSG:GSH in response to Vem (N=2); (D) total cellular GSH in response to Vem (N=2).

[5] = test system: A375 BRAFV600E mutant melanoma cells; experiment: DHE oxidation (cellular redox state) by fluorescence intensity; format: cell-based, human; details: Vem 5 μM; subsided with acquisition of resistance
Excerpt: as §2

[6] = test system: A375 metastatic melanoma cells; experiment: Autophagosome area fraction (TEM) and LC3B-II expression; format: cell-based, human
Excerpt: as §1

[7] = test system: MAPKi-sensitive A375 melanoma xenografts; experiment: A375 xenograft bearing mice treated with MAPKih with or without PBA and HCQ; format: in vivo; details: Vem 16 mg/kg twice a day, Cobi 1 mg/kg once a day, PBA 250 mg/kg twice a day i.p., HCQ 10 mg/kg twice a day
Description: To further explore the potential of simultaneous pharmacological inhibition of ER-stress and autophagy in preventing resistance to MAPKih, A375 xenograft bearing mice (FIGS. 5A-D) were treated with MAPKih or MAPKih in combination with PBA (250 mg kg-1 per dose, twice a day, i.p.) and HCQ (10 mg kg-1 per dose, twice per day, oral gavage). […] The experimental groups included MAPKi by Vem (BRAFih) (16 mg kg-1 per dose, twice a day, oral gavage) alone and in combination with Cobi (MAPKih) (1 mg kg-1 per dose, once a day, oral gavage).

metastatic melanoma = details: cited from earlier work; for progression-free survival (time tumor progression is slowed): melanoma patients, average
[8] = Vem 10 mg/kg, PBA 250 mg/kg, HCQ 6.6 mg/kg, each twice a day, compared to control
[9] = A375 cells, prolonged MAPKi (Vem 5 μM)

## CCCCS(=N)(=O)CCC(N)C(=O)O [BSO, L-buthionine-[S,R]-sulfoximine]
A375 melanoma cells; BSO 0.5 mM alone, without MAPKih
  clonogenic survival: did not affect
A375 melanoma cells; BSO 0.5 mM
  development / acquisition of resistance to MAPKi (clonogenic survival): completely inhibits acquisition of resistance; also recorded: prevents acquisition of resistance
A375 cells; continuous Vem in the presence of BSO 0.5 mM
  expression of GRP78 (BiP): diminished
[1]
  tolerability in patients: well-tolerated

## CCN(CCO)CCCC(C)Nc1ccnc2cc(Cl)ccc12 (stereo not shown) [HCQ, Hydroxychloroquine]
A375 melanoma cells; BSO 0.5 mM
  development / acquisition of resistance to MAPKi (clonogenic survival): prevented resistance
A375-CG-LC3B cells; secondary agent (BSO 0.5 mM, PBA 2 mM, HCQ 12 μM) added to MAPKih, versus MAPKih alone
  autophagic flux induced by MAPKi: decreased
[2]; [8]
  median / overall survival: significantly enhanced
[2]; share of mice
  complete response (complete remissions): 20%
[1]
  tolerability in patients: well tolerated

## OCCS [ME, 2-mercaptoethanol]
A375 melanoma cells; ME 150 μM, BSO 0.5 mM, Vem 5 μM
  clonogenic survival on addition of ME to vem and BSO: reversed; also recorded: rescues
451 Lu melanoma cells
  clonogenic survival on addition of ME to vem and BSO: rescues

## O=C(O)CCCc1ccccc1 [PBA, phenylbutyric acid]
[1]; patients suffering from urea cycle disorders
  tolerated dose: up to 27 g per day
[1]
  tolerability in patients: safely administered

## CCCS(=O)(=O)Nc1ccc(F)c(C(=O)c2c[nH]c3ncc(-c4ccc(Cl)cc4)cc23)c1F [Vem, Vemurafenib]
[3]; >170 d Vem treatment, versus untreated control cells
  total GSH concentration after adaptation: re-equilibrated to levels comparable to untreated control cells
[3]; [9]
  depletion of glutathione (GSH): 68%
  increase in oxidized glutathione (GSSG): 30 fold
[4]
  ratio of oxygen consumption linked to basal mitochondrial respiration (OCR) and extracellular acidification rate (ECAR): initial increase
[5]
  oxidation of DHE: initial increase
A375 cells; continuous MAPKi, later decrease to pre-treatment levels
  expression of ER-stress markers: gradual increase
[6]; Vem 5 μM
  area fraction of cells covered by autophagosomes (TEM): significant increase
[6]; continuous MAPKi by Vem
  expression of autophagic flux marker LC3B-II: significant increases
A375-CG-LC3B cells; continuous MAPKi (Vem 5 μM; Cobi 0.1 μM) versus untreated cells
  autophagic flux: increased
[7]
  rate of tumor growth: similar
[2]; [8]
  median / overall survival: no effect
  tumor growth rate: no effect
Metastatic melanoma; listed as Vemurafenib
  progression-free survival (time tumor progression is slowed): about 7.2 months
Metastatic melanoma; listed as vemurafenib
  progression-free survival (time tumor progression is slowed): 7.2 months

## CC(C)(C)c1nc(-c2cccc(NS(=O)(=O)c3c(F)cccc3F)c2F)c(-c2ccnc(N)n2)s1 [dabrafenib, Dabrafenib]
Metastatic melanoma; clinical trial data
  time until resistance occurs: 6 to 7 months
